Measurements taken from US4545991A, “Difficidin and derivative antibacterials” (Merck & Co., Inc., priority 1983, dated 1985).
In brackets after ≈: the same amount, converted by molar mass.

Experiments:
Assay type in all cases: cell-based
B. fragilis Pen^r = assay: MIC, in vitro agar dilution assay, anaerobic bacteria (Table III); details: 10^6 CFU per spot
[1] = tested on: B. fragilis NCCLS control strain; assay: as above; details: 10^6 CFU per spot
[2] = tested on: C. difficile Clind^r, Fox^r; assay: as above; details: 10^6 CFU per spot
[3] = tested on: B. thetaiotaomicron Clind^r, NCCLS control strain; assay: as above; details: 10^6 CFU per spot
Prot. morganii Sm^R = assay: MIC, in vitro agar dilution assay, aerobic bacteria (Table II); details: Prot. morganii Sm^R; 10^6 CFU per spot
E. coli DC 2 = assay: as above; details: E. coli DC 2; 10^6 CFU per spot
S. aureus = assay: as above; details: 10^6 CFU per spot
Excerpt: (§1) Further evaluations of the antibacterial spectrum of difficidin and oxydifficidin were undertaken, especially as compared to the antibacterial spectrum of the valuable antibiotic cefoxitin, which is well known for its wide spectrum of antibacterial activity. An in vitro agar dilution assay was used, inoculum 10^6 CFU per spot. Table II below illustrates the results obtained for various aerobic bacteria, and Table III illustrates the results obtained for various anaerobic bacteria.

E. coli = assay: as above; details: 10^6 CFU per spot
Excerpt: as §1

Strep. faecalis = assay: as above; details: 10^6 CFU per spot
Excerpt: as §1

Vibrio percolans MB 1272 = assay: in vitro agar disc diffusion bioassay of column fractions (Table V)
Protocol: A 0.4 ml sample of 2.1 L spent ethyl acetate fraction from Step A above was evaporated to an oily residue and taken up in 0.7 ml of 7:3 methanol-0.01Mpotassium phosphate pH 7.0. A 0.4 ml aliquot of the solution was chromatographed in the same solvent at 28° C. on a Dupont Zorbax ODS column (4.6 mn ID×25 cm), 10 micron. The flow rate was 1 ml/min. and column effluent was monitored at 275 nm using a Laboratory Data Control Spectra Monitor I ultraviolet detector equipped with a 10 mm pathlength flow cell and a Honeywell Electronik 195 recorder. Eluate was collected in 0.5 ml fractions and assayed by agar disc diffusion against Vibrio percolans MB 1272. Table V summaries bioassay results.
The data in Table V show the presence of two distinct antibacterial substances in spent ethyl acetate. The activity in Fractions 11 and 12 is due to the antibacterial oxydifficidin. The activity in Fractions 61-65 is due to the antibacterial difficidin.

[4] = tested on: Fusobacterium mortiferum Fox^r; assay: MIC, in vitro agar dilution assay, anaerobic bacteria (Table III); details: 10^6 CFU per spot
[5] = tested on: Peptostreptococcus anaerobius; assay: as above; details: 10^6 CFU per spot
[6] = tested on: Bacteriodes fragilis Metr^r, Pen^r; assay: as above; details: 10^6 CFU per spot
S. aureus Gm^R Meth^R = assay: MIC, in vitro agar dilution assay, aerobic bacteria (Table II); details: S. aureus Gm^R Meth^R; 10^6 CFU per spot
[7] = tested on: Klebsiella pneumoniae MB 4005; assay: MIC listed with mouse protection test (Table IV)
[8] = tested on: B. distasonis Pen^r Fox^r Clind^r; assay: MIC, in vitro agar dilution assay, anaerobic bacteria (Table III); details: 10^6 CFU per spot
Propionibacterium acnes = assay: as above; details: 10^6 CFU per spot
K. pneumoniae Kl^+ = assay: MIC, in vitro agar dilution assay, aerobic bacteria (Table II); details: 10^6 CFU per spot
C. difficile Fox^r = assay: MIC, in vitro agar dilution assay, anaerobic bacteria (Table III); details: C. difficile Fox^r; 10^6 CFU per spot
E. coli TEM 2^+ DC 2 = assay: MIC, in vitro agar dilution assay, aerobic bacteria (Table II); details: E. coli TEM 2^+ DC 2; 10^6 CFU per spot
Ps. aeruginosa [9] = assay: as above; details: Ps. aeruginosa, second unmarked strain; 10^6 CFU per spot
Sal. typhimurium = assay: as above; details: 10^6 CFU per spot
Ent. aerogenes = assay: as above; details: Ent. aerogenes; 10^6 CFU per spot
[10] = tested on: B. distasonis Pen^r Fox^r; assay: MIC, in vitro agar dilution assay, anaerobic bacteria (Table III); details: 10^6 CFU per spot
Ps. aeruginosa RPL 11^+ = assay: MIC, in vitro agar dilution assay, aerobic bacteria (Table II); details: Ps. aeruginosa RPL 11^+; 10^6 CFU per spot
E. coli TEM 2^+ = assay: as above; details: E. coli TEM 2^+; 10^6 CFU per spot
C. ramosum = assay: MIC, in vitro agar dilution assay, anaerobic bacteria (Table III); details: 10^6 CFU per spot
Ps. aeruginosa [11] = assay: MIC, in vitro agar dilution assay, aerobic bacteria (Table II); details: Ps. aeruginosa, first unmarked strain; 10^6 CFU per spot
Ent. cloacae P99^+ = assay: as above; details: Ent. cloacae P99^+; 10^6 CFU per spot
Prot. vulgaris = assay: as above; details: 10^6 CFU per spot
anaerobic bacteria = assay: antibacterial activity against anaerobic bacteria, summary; details: wide spectrum of anaerobic bacteria
B. ovatus Pen^r = assay: MIC, in vitro agar dilution assay, anaerobic bacteria (Table III); details: 10^6 CFU per spot
Prot. mirabilis Gm^R = assay: MIC, in vitro agar dilution assay, aerobic bacteria (Table II); details: 10^6 CFU per spot
[12] = tested on: Clostridium perfringens NCCLS control strain; assay: microbe, parasite or virus in culture; details: Clostridium perfringens NCCLS control strain; 10^6 CFU per spot
Veillonella alcalescens = assay: MIC, in vitro agar dilution assay, anaerobic bacteria (Table III); details: 10^6 CFU per spot
Actinomyces naeslundii = assay: as above; details: 10^6 CFU per spot
[13] = tested on: B. thetaiotaomicron Clind^r; assay: as above; details: 10^6 CFU per spot

C=CC=C(C)CCC1CC=CC=C(C)C(OP(=O)(O)O)CCCC=CC=CC=CCC(C)C(=C)CC(=O)O1 (stereo not drawn) [Difficidin, difficidin]
MIC (B. fragilis Pen^r): 0.125 µg/mL (≈ 0.229 µM)
MIC [1]: 0.06 µg/mL (≈ 0.11 µM)
MIC [2]: 0.125 µg/mL (≈ 0.229 µM)
MIC [3]: 0.06 µg/mL (≈ 0.11 µM)
MIC (Prot. morganii Sm^R): 2.0 µg/mL (≈ 3.67 µM)
MIC (E. coli DC 2): 8.0 µg/mL (≈ 14.7 µM)
MIC (S. aureus; first unmarked strain): 16.0 µg/mL (≈ 29.4 µM)
MIC (S. aureus; second unmarked strain): 8.0 µg/mL (≈ 14.7 µM)
MIC (E. coli): 8.0 µg/mL (≈ 14.7 µM)
MIC (Strep. faecalis): > 128.0 µg/mL
Zone Diameter (Vibrio percolans MB 1272; Fraction 61, 40 μl on 3/8" disc): 12 mm
Zone Diameter (Vibrio percolans MB 1272; Fraction 62, 40 μl on 3/8" disc): 12 mm
Zone Diameter (Vibrio percolans MB 1272; Fraction 63, 40 μl on 3/8" disc): 12 mm
Zone Diameter (Vibrio percolans MB 1272; Fraction 64, 40 μl on 3/8" disc): 12 mm
Zone Diameter (Vibrio percolans MB 1272; Fraction 65, 40 μl on 3/8" disc): 12 mm
MIC [4]: 0.03 µg/mL (≈ 0.0551 µM)
MIC [5]: 0.06 µg/mL (≈ 0.11 µM)
MIC [6]: 0.125 µg/mL (≈ 0.229 µM)
MIC (S. aureus Gm^R Meth^R): 8.0 µg/mL (≈ 14.7 µM)
MIC [7]: 8 µg/mL (≈ 14.7 µM)
MIC [8]: 0.06 µg/mL (≈ 0.11 µM)
MIC (Propionibacterium acnes): 1 µg/mL (≈ 1.84 µM)
MIC (K. pneumoniae Kl^+): 8.0 µg/mL (≈ 14.7 µM)
MIC (C. difficile Fox^r): 0.06 µg/mL (≈ 0.11 µM)
MIC (E. coli TEM 2^+ DC 2): 8.0 µg/mL (≈ 14.7 µM)
MIC (Ps. aeruginosa [9]): 8.0 µg/mL (≈ 14.7 µM)
MIC (Sal. typhimurium): 8.0 µg/mL (≈ 14.7 µM)
MIC (Ent. aerogenes): 8.0 µg/mL (≈ 14.7 µM)
MIC [10]: > 128 µg/mL
MIC (Ps. aeruginosa RPL 11^+): 8.0 µg/mL (≈ 14.7 µM)
MIC (E. coli TEM 2^+): 8.0 µg/mL (≈ 14.7 µM)
MIC (C. ramosum): 2 µg/mL (≈ 3.67 µM)
MIC (Ps. aeruginosa [11]): 8.0 µg/mL (≈ 14.7 µM)
MIC (Ent. cloacae P99^+): 16.0 µg/mL (≈ 29.4 µM)
MIC (Prot. vulgaris): 0.5 µg/mL (≈ 0.918 µM)
activity against anaerobic bacteria (anaerobic bacteria): active against a wide spectrum of anaerobic bacteria
MIC (B. ovatus Pen^r): 0.125 µg/mL (≈ 0.229 µM)
MIC (Prot. mirabilis Gm^R): 8.0 µg/mL (≈ 14.7 µM)
MIC [12]: > 128 µg/mL
MIC (Veillonella alcalescens): 0.25 µg/mL (≈ 0.459 µM)
MIC (Actinomyces naeslundii): > 128 µg/mL
MIC [13]: 0.25 µg/mL (≈ 0.459 µM)

C=CC=C(C)CCC1CC=CC=C(C)C(OP(=O)(O)O)CCCC=CC=CC=CC(O)C(C)C(=C)CC(=O)O1 (stereo not drawn) [Oxydifficidin, oxydifficidin]
MIC (B. fragilis Pen^r): 0.125 µg/mL (≈ 0.223 µM)
MIC [1]: 0.25 µg/mL (≈ 0.446 µM)
MIC [2]: 0.06 µg/mL (≈ 0.107 µM)
MIC [3]: 0.25 µg/mL (≈ 0.446 µM)
MIC (Prot. morganii Sm^R): 2.0 µg/mL (≈ 3.57 µM)
MIC (E. coli DC 2): 4.0 µg/mL (≈ 7.13 µM)
MIC (S. aureus; first unmarked strain): > 128.0 µg/mL
MIC (S. aureus; second unmarked strain): 32.0 µg/mL (≈ 57.1 µM)
MIC (E. coli): 4.0 µg/mL (≈ 7.13 µM)
MIC (Strep. faecalis): > 128.0 µg/mL
Zone Diameter (Vibrio percolans MB 1272; Fraction 11, 40 μl on 3/8" disc): 23 mm
Zone Diameter (Vibrio percolans MB 1272; Fraction 12, 40 μl on 3/8" disc): 19 mm
MIC [4]: 0.125 µg/mL (≈ 0.223 µM)
MIC [5]: 0.06 µg/mL (≈ 0.107 µM)
MIC [6]: 0.25 µg/mL (≈ 0.446 µM)
MIC (S. aureus Gm^R Meth^R): 32.0 µg/mL (≈ 57.1 µM)
MIC [7]: 8 µg/mL (≈ 14.3 µM)
MIC [8]: 0.06 µg/mL (≈ 0.107 µM)
MIC (Propionibacterium acnes): 8 µg/mL (≈ 14.3 µM)
MIC (K. pneumoniae Kl^+): 8.0 µg/mL (≈ 14.3 µM)
MIC (C. difficile Fox^r): 0.06 µg/mL (≈ 0.107 µM)
MIC (E. coli TEM 2^+ DC 2): 8.0 µg/mL (≈ 14.3 µM)
MIC (Ps. aeruginosa [9]): 32.0 µg/mL (≈ 57.1 µM)
MIC (Sal. typhimurium): 32.0 µg/mL (≈ 57.1 µM)
MIC (Ent. aerogenes): 32.0 µg/mL (≈ 57.1 µM)
MIC [10]: > 128 µg/mL
MIC (Ps. aeruginosa RPL 11^+): 16.0 µg/mL (≈ 28.5 µM)
MIC (E. coli TEM 2^+): 16.0 µg/mL (≈ 28.5 µM)
MIC (C. ramosum): 2 µg/mL (≈ 3.57 µM)
MIC (Ps. aeruginosa [11]): 32.0 µg/mL (≈ 57.1 µM)
MIC (Ent. cloacae P99^+): 32.0 µg/mL (≈ 57.1 µM)
MIC (Prot. vulgaris): 8.0 µg/mL (≈ 14.3 µM)
activity against anaerobic bacteria (anaerobic bacteria): active against a wide spectrum of anaerobic bacteria
MIC (B. ovatus Pen^r): 0.25 µg/mL (≈ 0.446 µM)
MIC (Prot. mirabilis Gm^R): 32.0 µg/mL (≈ 57.1 µM)
MIC [12]: > 128 µg/mL
MIC (Veillonella alcalescens): 0.06 µg/mL (≈ 0.107 µM)
MIC (Actinomyces naeslundii): 64 µg/mL (≈ 114 µM)
MIC [13]: 0.25 µg/mL (≈ 0.446 µM)
